US5955440A, “Macrolide LHRH antagonists” (Abbott Laboratories, priority 1998, dated 1999)

target: T1, LHRH rat pituitary receptor (Rattus norvegicus, UniProt P30969); test: LHRH rat pituitary receptor binding (pKI); conditions: negative logarithm of the equilibrium dissociation constants, Table 1, read-out: receptor binding affinity (pKI) (converted)
T1 construct: from tissue; host or cells: rat pituitary
T1 sequence (P30969 1-327): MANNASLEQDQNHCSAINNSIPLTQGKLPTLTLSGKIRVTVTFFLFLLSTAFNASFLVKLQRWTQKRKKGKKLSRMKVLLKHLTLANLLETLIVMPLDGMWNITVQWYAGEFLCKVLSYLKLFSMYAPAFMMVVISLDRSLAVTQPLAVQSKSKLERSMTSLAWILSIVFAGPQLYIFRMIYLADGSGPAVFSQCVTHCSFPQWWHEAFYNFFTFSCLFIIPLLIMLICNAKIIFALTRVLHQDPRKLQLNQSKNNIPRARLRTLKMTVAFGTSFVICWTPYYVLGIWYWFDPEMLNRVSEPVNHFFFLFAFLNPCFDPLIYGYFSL
Description: Representative compounds of the present invention were evaluated in in vitro tests for LHRH rat pituitary receptor binding (pKI) and for LH inhibition from rat pituitary cells for antagonist potency (pA2). The tests employed the methods detailed in F. Haviv, et al. J. Med. Chem., 32: 2340-2344 (1989). The receptor binding affinity (pKI) is the negative logarithm of the equilibrium dissociation constants.

Row | Ki [nM] | SMILES
1 | 2.51 | CC[C@H]1OC(=O)[C@H](C)[C@@H](O[C@H]2C[C@@](C)(OC)[C@@H](O)[C@H](C)O2)[C@H](C)[C@@H](O[C@@H]2O[C@H](C)C[C@H](N(C)Cc3ccccn3)[C@H]2O)[C@](C)(OC)C[C@@H](C)C(=O)[C@H](C)[C@H]2N(CCc3ccc(F)c(Cl)c3)C(=O)O[C@]12C [Example 47, 3'-N-Desmethyl-3'-N-(2-pyridyl)methyl-11-deoxy-11-[carboxy-(3-chloro-4-fluorophenethylamino)]-6-O-methyl-erythromycin A 11,12-(cyclic carbamate)]
2 | 1.91 | CC[C@H]1OC(=O)[C@H](C)[C@@H](O[C@H]2C[C@@](C)(OC)[C@@H](O)[C@H](C)O2)[C@H](C)[C@@H](O[C@@H]2O[C@H](C)C[C@H](N(C)Cc3cccc(C)n3)[C@H]2O)[C@](C)(OC)C[C@@H](C)C(=O)[C@H](C)[C@H]2N(CCc3ccc(F)c(Cl)c3)C(=O)O[C@]12C [Example 48, 3'-N-Desmethyl-3'-N-[2-(6-methyl)pyridyl]methyl-11-deoxy-11-[carboxy-(3-chloro-4-fluorophenethylamino)]-6-O-methyl-erythromycin A 11,12-(cyclic carbamate)]
3 | 3.16 | CC[C@H]1OC(=O)[C@H](C)[C@@H](O[C@H]2C[C@@](C)(OC)[C@@H](O)[C@H](C)O2)[C@H](C)[C@@H](O[C@@H]2O[C@H](C)C[C@H](N(C)Cc3ccc(OCCO)cc3)[C@H]2O)[C@](C)(OC)C[C@@H](C)C(=O)[C@H](C)[C@H]2N(CCc3ccc(F)c(Cl)c3)C(=O)O[C@]12C [Example 49, 3'-N-Desmethyl-3'-N-(4-hydroxyethoxybenzyl)-11-deoxy-11-[carboxy-(3-chloro-4-fluorophenethylamino)]-6-O-methyl-erythromycin A 11,12-(cyclic carbamate)]
4 | 0.977 | CC[C@H]1OC(=O)[C@H](C)[C@@H](O[C@H]2C[C@@](C)(OC)[C@@H](O)[C@H](C)O2)[C@H](C)[C@@H](O[C@@H]2O[C@H](C)C[C@H](N(C)CCC(C)SC)[C@H]2O)[C@](C)(OC)C[C@@H](C)C(=O)[C@H](C)[C@H]2N(CCc3ccc(F)c(Cl)c3)C(=O)O[C@]12C (stereo partly shown) [Example 50, 3'-N-Desmethyl-3'-N-(3-methylthio)butyl-11-deoxy-11-[carboxy-(3-chloro-4-fluorophenethylamino)]-6-O-methyl-erythromycin A 11,12-(cyclic carbamate)]
5 | 6.31 | CC[C@H]1OC(=O)[C@H](C)[C@@H](O[C@H]2C[C@@](C)(OC)[C@@H](O)[C@H](C)O2)[C@H](C)[C@@H](O[C@@H]2O[C@H](C)C[C@H](N(C)CCCC(F)(F)F)[C@H]2O)[C@](C)(OC)C[C@@H](C)C(=O)[C@H](C)[C@H]2N(CCc3ccc(F)c(Cl)c3)C(=O)O[C@]12C [Example 51, 3'-N-Desmethyl-3'-N-(4,4,4-trifluorobutyl)-11-deoxy-11-[carboxy-(3-chloro-4-fluorophenethylamino)]-6-O-methyl-erythromycin A 11,12-(cyclic carbamate)]
6 | 7.94 | CC[C@H]1OC(=O)[C@H](C)[C@@H](O[C@H]2C[C@@](C)(OC)[C@@H](O)[C@H](C)O2)[C@H](C)[C@@H](O[C@@H]2O[C@H](C)C[C@H](N(C)C3CCC3)[C@H]2O)[C@](C)(OC)C[C@@H](C)C(=O)[C@H](C)[C@H]2N(CCc3ccc(Cl)c(F)c3)C(=O)O[C@]12C [Example 52, 3'-N-Desmethyl-3'-N-cyclobutyl-11-deoxy-11-[carboxy-(4-chloro-3-fluorophenethylamino)]-6-O-methyl-erythromycin A 11,12-(cyclic carbamate)]
7 | 3.02 | CC[C@H]1OC(=O)[C@H](C)[C@@H](O[C@H]2C[C@@](C)(OC)[C@@H](O)[C@H](C)O2)[C@H](C)[C@@H](O[C@@H]2O[C@H](C)C[C@H](N(C)C(C)C)[C@H]2O)[C@](C)(OC)C[C@@H](C)C(=O)[C@H](C)[C@H]2N(CCc3ccc(F)c(F)c3)C(=O)O[C@]12C [Example 53, 3'-N-Desmethyl-3'-N-isopropyl-11-deoxy-11-[carboxy-(3,4-difluorophenethylamino)]-6-O-methyl-erythromycin A 11,12-(cyclic carbamate)]
8 | 4.07 | CCCN(C)[C@H]1C[C@@H](C)O[C@@H](O[C@@H]2[C@@H](C)[C@H](O[C@H]3C[C@@](C)(OC)[C@@H](O)[C@H](C)O3)[C@@H](C)C(=O)O[C@H](CC)[C@@]3(C)OC(=O)N(CCc4ccc5c(c4)OCCO5)[C@@H]3[C@@H](C)C(=O)[C@H](C)C[C@@]2(C)OC)[C@@H]1O [Example 54, 3'-N-Desmethyl-3'-N-propyl-11-deoxy-11-[carboxy-[3 4-(1,4-dioxano)phenethylamino)]}-6-O-methyl-erythromycin A 11,12-(cyclic carbamate)]
9 | 7.24 | CC[C@H]1OC(=O)[C@H](C)[C@@H](O[C@H]2C[C@@](C)(OC)[C@@H](O)[C@H](C)O2)[C@H](C)[C@@H](O[C@@H]2O[C@H](C)C[C@H](N(C)CC3CC3)[C@H]2O)[C@](C)(OC)C[C@@H](C)C(=O)[C@H](C)[C@H]2N(CCc3ccc(Cl)c(Cl)c3)C(=O)O[C@]12C [Example 55, 3'-N-Desmethyl-3'-N-cyclopropylmethyl-11-deoxy-11-[carboxy-(3,4-dichlorophenethylamino)]-6-O-methyl-erythromycin A 11,12-(cyclic carbamate)]
10 | 1.78 | CC[C@H]1OC(=O)[C@H](C)[C@@H](O[C@H]2C[C@@](C)(OC)[C@@H](O)[C@H](C)O2)[C@H](C)[C@@H](O[C@@H]2O[C@H](C)C[C@H](N(C)CCC[S+](C)[O-])[C@H]2O)[C@](C)(OC)C[C@@H](C)C(=O)[C@H](C)[C@H]2N(CCc3ccc(Cl)c(Cl)c3)C(=O)O[C@]12C (stereo partly shown) [Example 56, 3'-N-Desmethyl-3'-N-[3-(methylsulfoxy)propyl]-11-deoxy-11-[carboxy-(3,4-dichlorophenethylamino)]-6-O-methyl-erythromycin A 11,12-(cyclic carbamate)]
11 | 9.12 | CCNC(=S)N(C)[C@H]1C[C@@H](C)O[C@@H](O[C@@H]2[C@@H](C)[C@H](O[C@H]3C[C@@](C)(OC)[C@@H](O)[C@H](C)O3)[C@@H](C)C(=O)O[C@H](CC)[C@@]3(C)OC(=O)N(CCc4ccc(Cl)c(Cl)c4)[C@@H]3[C@@H](C)C(=O)[C@H](C)C[C@@]2(C)OC)[C@@H]1O [Example 57, 3'-N-Desmethyl-3'-N-ethylthiourea-11-deoxy-11-[carboxy-(3,4-dichlorophenethylamino)]-6-O-methyl-erythromycin A 11,12-(cyclic carbamate)]
12 | 1.55 | CC[C@H]1OC(=O)[C@H](C)[C@@H](O[C@H]2C[C@@](C)(OC)[C@@H](O)[C@H](C)O2)[C@H](C)[C@@H](O[C@@H]2O[C@H](C)C[C@H](N(C)Cc3ccc(CO)o3)[C@H]2O)[C@](C)(OC)C[C@@H](C)C(=O)[C@H](C)[C@H]2N(CCc3ccc(Cl)c(Cl)c3)C(=O)O[C@]12C [Example 58, 3'-N-Desmethyl-3'-N-[2-(5-hydroxymethyl)furyl]methyl-11-deoxy-11-[carboxy-(3,4-dichlorophenethylamino)]-6-O-methyl-erythromycin A 11,12-(cyclic carbamate)]
13 | 3.72 | CC[C@H]1OC(=O)[C@H](C)[C@@H](O[C@H]2C[C@@](C)(OC)[C@@H](O)[C@H](C)O2)[C@H](C)[C@@H](O[C@@H]2O[C@H](C)C[C@H](N(C)CC3CC3)[C@H]2O)[C@](C)(OC)C[C@@H](C)C(=O)[C@H](C)[C@H]2N(CC3(c4ccc(Cl)c(Cl)c4)CC3)C(=O)O[C@]12C [Example 59, 3'-N-Desmethyl-3'-N-cyclopropylmethyl-11-deoxy-11-[carboxy-(α,α-cyclopropyl-3,4-dichlorophenethylamino)]-6-O-methyl-erythromycin A 11,12-(cyclic carbamate)]
